Data set [1] concerns the target T1, 5-HT1A receptor (Homo sapiens, UniProt P08908).
T1 construct: expressed in transfected cells; host or cells: CHO cells, stably transfected
T1 sequence (P08908 1-422): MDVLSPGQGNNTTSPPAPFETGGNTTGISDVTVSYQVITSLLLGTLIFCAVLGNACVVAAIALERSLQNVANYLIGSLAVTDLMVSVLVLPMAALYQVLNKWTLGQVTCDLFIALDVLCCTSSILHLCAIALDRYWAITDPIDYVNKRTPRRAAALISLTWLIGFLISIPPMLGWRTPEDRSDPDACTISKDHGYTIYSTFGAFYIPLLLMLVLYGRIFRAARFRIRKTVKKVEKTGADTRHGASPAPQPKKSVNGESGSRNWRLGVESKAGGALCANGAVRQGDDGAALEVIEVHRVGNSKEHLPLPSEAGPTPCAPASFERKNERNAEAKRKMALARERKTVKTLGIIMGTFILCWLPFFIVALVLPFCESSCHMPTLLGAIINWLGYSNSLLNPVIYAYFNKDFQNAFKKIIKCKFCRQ
Briefly: cell-based. The note with it: agonist, Ca2+ flux; for Emax: CHO, CHO cells with Gα15, max dose, read-out: 5-HT1A % Act @ Max Dose. The method, boiled down: (§1)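 FLIPR Tetra fluorescence read-out of calcium flux after compound addition. Receptor-expressing stable lines were used (HEK293 for 2A/2B; CHO with Gα15 for 1A), dye-loaded with Fluo-4 Direct and 2.5 mM final probenecid, 50 min at 37 °C.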
In general terms: Calcium assays in cells follow changes in intracellular calcium, usually with a dye or a luminescent sensor.

The target of data set [2] is T2, 5-HT2B receptor (Homo sapiens, UniProt P41595).
T2 construct: expressed in transfected cells; host or cells: HEK293, stably transfected
Briefly: cell-based. In kind it is cell-based. To be noted: for Emax: HEK293, agonist, read-out: 5-HT2B % Act @ Max Dose. The method, boiled down:
as §1

Data set [3] in a line: in vitro. Format: in vitro ADME, human.
Data set [4] addresses T3, 5-HT1B receptor (Homo sapiens, UniProt P28222).
T3 construct: expressed in transfected cells
Briefly: cAMP accumulation functional assay at 5-HT1B. Format: cell-based. To be noted: for Emax: agonist, cAMP accumulation, max dose, read-out: 5-HT1B % Act @ Max Dose; for selectivity for 5-HT2A over 5-HT1B: functional, compared to the N-methyl prototype LSD. In short, it runs like this:
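Stably transfected human 5-HT1B cells were incubated 60 min at room temperature, after which detection reagent was applied for another 60 min at RT. The read-out was cAMP accumulation, used as a measure of agonist activity.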
In general terms: Changes in cAMP serve as a functional read-out for many G protein-coupled receptors.

Data set [5] addresses T4, 5-HT2A receptor (Homo sapiens, UniProt P28223). The data set is described as follows: cell-based. Format: cell-based. On the set-up: expressed in transfected cells; host or cells: HEK293, stably transfected. To be noted: Ca2+ flux; for Emax: HEK293, agonist, HEK293, max dose, read-out: 5-HT2A % Act @ Max Dose. The method, boiled down: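 Agonism measured as calcium flux on FLIPR Tetra. Receptor lines: HEK293 for 5-HT2A and 5-HT2B, CHO with Gα15 for 5-HT1A; dye loading with Fluo-4 Direct and probenecid (2.5 mM final) ran 50 min at 37 °C before compound addition and signal reading.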

The nature of data set [6]: in vitro. Format: in vitro ADME, mouse. The text has this:
MLM Stability Pooled MLM from male CD-1 mice (BIOIVT M00501) were used.

Data set [7] is described as follows: in vitro. Format: in vitro ADME, rat. The text has this: RLM Stability Pooled RLM from male Sprague-Dawley rats (Xenotech R1000) were used.
In data set [8] the target is T4, 5-HT2A receptor. The data set is described as follows: cell-based. The note with it: beta-arrestin recruitment; for Emax: read-out: 5-HT2A Arrestin % Act @ Max Dose. Format: cell-based. The method, boiled down:
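Agonist activity expressed as percent of maximal control ligand signal after vehicle subtraction, from chemiluminescence (RLU). Cells carry ProLink-tagged 5-HT2A plus β-arrestin fused to β-gal deletion mutant; ligand-driven arrestin binding restores β-galactosidase activity (PathHunter). Cells pre-incubated at 37° C.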
In general terms: Activated receptors often draw arrestin, which recruitment assays turn into a signal.

Data set [9] addresses T4, 5-HT2A receptor. Briefly: biochemical. On the set-up: expressed in transfected cells; host or cells: HEK293, stably transfected. The note with it: [3H]ketanserin 1 nM; HEK293 stable cell line; 1 h, 25 °C. Format: binding. In short, it runs like this:
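Test compounds competed with [^3H]ketanserin for receptor binding, and affinity was derived from the radioligand displacement.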

The mark [10] stands for this setting: HLM 0.50 mg/mL, NADPH 1 mM, 1 μM compound, pH 7.4, 37° C., 60 min.
The mark [11] stands for this setting: MLM (male CD-1) 0.50 mg/mL, NADPH 1 mM, 1 μM compound, pH 7.4, 37° C., 60 min.
[12] abbreviates: RLM (male Sprague-Dawley) 0.50 mg/mL, NADPH 1 mM, 1 μM compound, pH 7.4, 37° C., 60 min.

In general, EC50 refers to the concentration that produces a half-maximal response. A word on the Ki: it is the dissociation constant of the complex between target and ligand, obtained from inhibition or displacement.

Where two headings read alike, the source gives them in different places. Bounds are passed on as bounds.

T4 sequence (P28223 whole entry): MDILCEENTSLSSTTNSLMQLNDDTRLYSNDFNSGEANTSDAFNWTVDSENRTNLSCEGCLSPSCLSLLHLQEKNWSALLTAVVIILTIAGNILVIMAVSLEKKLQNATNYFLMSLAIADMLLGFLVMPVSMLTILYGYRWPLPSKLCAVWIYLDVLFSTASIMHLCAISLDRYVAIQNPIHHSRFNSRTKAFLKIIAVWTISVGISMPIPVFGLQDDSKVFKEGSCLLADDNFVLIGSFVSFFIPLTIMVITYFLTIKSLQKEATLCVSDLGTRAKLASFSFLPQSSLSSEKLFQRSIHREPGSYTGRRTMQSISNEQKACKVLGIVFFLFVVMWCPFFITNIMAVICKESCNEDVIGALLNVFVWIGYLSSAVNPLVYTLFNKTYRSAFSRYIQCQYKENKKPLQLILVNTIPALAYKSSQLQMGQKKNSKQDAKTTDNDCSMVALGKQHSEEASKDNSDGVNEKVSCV
T2 sequence (P41595 whole entry): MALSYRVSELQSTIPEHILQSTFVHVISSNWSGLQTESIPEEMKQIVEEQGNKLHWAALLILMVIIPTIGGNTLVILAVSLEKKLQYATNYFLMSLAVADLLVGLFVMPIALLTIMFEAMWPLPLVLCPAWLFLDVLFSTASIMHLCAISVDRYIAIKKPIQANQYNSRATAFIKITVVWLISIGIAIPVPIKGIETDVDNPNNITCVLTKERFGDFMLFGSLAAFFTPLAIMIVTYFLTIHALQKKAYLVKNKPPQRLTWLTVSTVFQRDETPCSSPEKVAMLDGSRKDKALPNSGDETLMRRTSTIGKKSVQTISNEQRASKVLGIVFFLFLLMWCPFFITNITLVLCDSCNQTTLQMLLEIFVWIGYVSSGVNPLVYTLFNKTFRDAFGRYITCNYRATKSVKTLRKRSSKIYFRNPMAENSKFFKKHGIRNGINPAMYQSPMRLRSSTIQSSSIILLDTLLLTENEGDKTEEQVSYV
T3 sequence (P28222 whole entry): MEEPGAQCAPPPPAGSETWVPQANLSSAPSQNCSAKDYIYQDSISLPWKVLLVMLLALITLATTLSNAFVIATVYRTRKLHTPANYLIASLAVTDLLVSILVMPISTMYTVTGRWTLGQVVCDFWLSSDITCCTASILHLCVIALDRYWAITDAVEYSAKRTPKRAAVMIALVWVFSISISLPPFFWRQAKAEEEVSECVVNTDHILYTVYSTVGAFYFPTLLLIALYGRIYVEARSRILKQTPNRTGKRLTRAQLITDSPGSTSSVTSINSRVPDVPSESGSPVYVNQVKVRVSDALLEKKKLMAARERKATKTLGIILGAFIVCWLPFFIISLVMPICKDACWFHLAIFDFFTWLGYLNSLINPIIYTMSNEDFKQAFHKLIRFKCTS

As to `CCCN1C[C@H](C(=O)N2[C@@H](C)C[C@@H]2C)C=C2c3cccc4[nH]cc(c34)C[C@H]21` [Compound 4, ((2S,4S)-2,4-dimethylazetidin-1-yl)((6aR,9R)-7-propyl-4,6,6a,7,8,9-hexahydroindolo[4,3-fg]quinolin-9-yl)methanone], the Emax in [1] stood at 123%; in data set [2] (Ca2+ flux, HEK293, max dose) it was 87.5%; in data set [4], 96%; in data set [5], 97.6%; in data set [8] (agonist, max dose), 117%. For the same molecule, the “selectivity for 5-HT2A over 5-HT2B” value in [2] (functional, compared to closest N-methyl counterparts Int8, Int11, Int17) is “more selective for 5-HT2A over 5-HT2B”. Also, the “stability in HLM” value in data set [3] was “much lower stability (higher clearance)”. Also, the “half-life (t1/2)” value is reported as 10.6 min in [3] (setting [10]), 0.8 min in data set [6] (setting [11]) and 12.8 min in [7] (setting [12]). Further, in [4], the “selectivity for 5-HT2A over 5-HT1B” value is reported as “greater selectivity for 5-HT2A over 5-HT1B”. Further, the “stability in MLM” value in data set [6] is on record as “much lower stability (higher clearance)”. In addition, in [7], the “stability in RLM” value is “much lower stability (higher clearance)”. For the same molecule, the “5-HT2A arrestin agonist class” value in data set [8] is given as “full agonists”.

As to `CCN(CC)C(=O)[C@@H]1C=C2c3cccc4[nH]cc(c34)C[C@H]2N(CCc2ccccc2OC)C1` [Compound 11, (6aR,9R)—N,N-diethyl-7-(2-methoxyphenethyl)-4,6,6,7,8,9-hexahydroindolo[4,3-fg]quinoline-9-carboxamide], in data set [2] (agonist, Ca2+ flux, HEK293, max dose), the “5-HT2B % Act @ Max Dose” value turned out to be 2.5%. Moreover, the “stability in HLM” value in data set [3] is “much lower stability (higher clearance)”. In addition, the “Intrinsic clearance (Clint)” value was 584.336 µL/min/mg in [3] (setting [10]), 1512.047 µL/min/mg in [6] (setting [11]) and 1195.423 µL/min/mg in data set [7] (setting [12]). For the same molecule, the “half-life (t1/2)” value stood at 2.372 min in data set [3] (setting [10]), 0.917 min in data set [6] (setting [11]) and 1.159 min in [7] (setting [12]). For the same molecule, in data set [6], the “stability in MLM” value is reported as “much lower stability (higher clearance)”. In addition, in [7], the “stability in RLM” value is listed as “much lower stability (higher clearance)”. Also, in data set [8] (agonist, max dose), the “5-HT2A Arrestin % Act @ Max Dose” value came to 54.26%.

Consider `CC[C@@H](C)NC(=O)[C@@H]1C=C2c3cccc4[nH]cc(c34)C[C@H]2N(C)C1` [Int8], for which the Emax was 90.2% in data set [1]; 17.7% in data set [2] (Ca2+ flux, HEK293, max dose); 96.2% in [5]; 46.1% in data set [8] (agonist, max dose). In addition, the “half-life (t1/2)” value amounted to 64.9 min in [3] (human, microsomes, pH 7.4); 39.9 min in [6] (mouse, microsomes, pH 7.4); 99.5 min in data set [7] (rat, microsomes, pH 7.4). Besides, in [8], the “5-HT2A arrestin agonist class” value was “partial agonists”.

For the molecule `CCN(CC)C(=O)[C@@H]1C=C2c3cccc4[nH]cc(c34)C[C@H]2N(Cc2ccc(OC)cc2)C1` [Compound 19, (6aR,9R)—N,N-diethyl-7-(4-methoxybenzyl)-4,6,6a,7,8,9-hexahydroindolo[4,3-fg]quinoline-9-carboxamide], the Emax was -0.65% in [1]; 2.44% in data set [2] (Ca2+ flux, HEK293, max dose); 71.1% in data set [4]; 70.5% in [5]; 42.3% in data set [8] (agonist, max dose). The “Intrinsic clearance (Clint)” value amounted to 82.7 µL/min/mg in data set [3] (setting [10]), 192.7 µL/min/mg in data set [6] (setting [11]) and 139.0 µL/min/mg in data set [7] (setting [12]). The “half-life (t1/2)” value in [3] (setting [10]) was 16.8 min; in [6] (setting [11]), 7.2 min; in data set [7] (setting [12]), 10.0 min. Moreover, the EC50 in data set [8] (agonist, PathHunter, read-out: 5-HT2A Arrestin EC50) was 13.5 nM.

Turning to `CCN(C)C(=O)[C@@H]1C=C2c3cccc4[nH]cc(c34)C[C@H]2N(Cc2ccccc2)C1` [Compound 85, (6aR,9R)-7-benzyl-N-ethyl-N-methyl-4,6,6a,7,8,9-hexahydroindolo[4,3-fg]quinoline-9-carboxamide], the Emax is 36.8% in data set [1]; 3.73% in [2] (Ca2+ flux, HEK293, max dose); 60.6% in data set [5]. Also, the EC50 in data set [1] (CHO cells with Gα15) was > 10000 nM; in [2] (agonist, Ca2+ flux, HEK293) it was > 10000 nM; in data set [5] (agonist, HEK293), 500 nM. In addition, the microsomal CLint in data set [3] (human, microsomes, HLM 0.50 mg/mL, NADPH 1 mM, 1 μM compound, pH 7.4, 37° C., 60 min, read-out: Intrinsic clearance (Clint)) was 95 µL/min/mg; in [6] (mouse, microsomes, MLM (male CD-1) 0.50 mg/mL, NADPH 1 mM, 1 μM compound, pH 7.4, 37° C., 60 min, read-out: Intrinsic clearance (Clint)) it was 184 µL/min/mg; in data set [7] (rat, microsomes, RLM (male Sprague-Dawley) 0.50 mg/mL, NADPH 1 mM, 1 μM compound, pH 7.4, 37° C., 60 min, read-out: Intrinsic clearance (Clint)), 131 µL/min/mg. In addition, the half-life came out at 14.6 min in data set [3] (human, microsomes, HLM 0.50 mg/mL, NADPH 1 mM, 1 μM compound, pH 7.4, 37° C., 60 min, read-out: half-life (t1/2)); 7.5 min in [6] (mouse, microsomes, MLM (male CD-1) 0.50 mg/mL, NADPH 1 mM, 1 μM compound, pH 7.4, 37° C., 60 min, read-out: half-life (t1/2)); 10.5 min in [7] (rat, microsomes, RLM (male Sprague-Dawley) 0.50 mg/mL, NADPH 1 mM, 1 μM compound, pH 7.4, 37° C., 60 min, read-out: half-life (t1/2)). The molecule also yielded an inhibitory constant (Ki) in data set [9] of 1.27 nM.

As to `CCCN1C[C@H](C(=O)NC(CC)CC)C=C2c3cccc4[nH]cc(c34)C[C@H]21` [Compound 6, (6aR,9R)—N-(pentan-3-yl)-7-propyl-4,6,6a,7,8,9-hexahydroindolo[4,3-fg]quinoline-9-carboxamide], the Emax in [1] worked out at 102%; in data set [2] (Ca2+ flux, HEK293, max dose), 92.9%; in data set [4] it was 94.6%; in data set [5] it was 94.6%; in [8] (agonist, max dose), 103%. Also, the “stability in HLM” value in data set [3] is “much lower stability (higher clearance)”. Besides, the figures for the “half-life (t1/2)” value in [3] (setting [10]), in data set [6] (setting [11]) and in data set [7] (setting [12]) were 1.607 min, 0.6 min and 1.655 min, respectively. Further, in data set [4], the “selectivity for 5-HT2A over 5-HT1B” value is listed as “greater selectivity for 5-HT2A over 5-HT1B”. Also, the “stability in MLM” value in data set [6] is “much lower stability (higher clearance)”. Moreover, the “stability in RLM” value in data set [7] is recorded as “much lower stability (higher clearance)”. Also, the “5-HT2A arrestin agonist class” value in [8] is listed as “full agonists”.

On to `C=CCN1C[C@H](C(=O)N[C@H](C)CC)C=C2c3cccc4[nH]cc(c34)C[C@H]21` [Compound 8, (6aR,9R)-7-allyl-N—((R)-sec-butyl)-4,6,6a,7,8,9-hexahydroindolo[4,3-fg]quinoline-9-carboxamide], for which the Emax was 116% in [1]; 91.6% in data set [2] (Ca2+ flux, HEK293, max dose); 99.2% in data set [5]; 112% in data set [8] (agonist, max dose). For the same molecule, the “stability in HLM” value in [3] was “much lower stability (higher clearance)”. The “half-life (t1/2)” value is reported as 7.9 min in data set [3] (setting [10]), 3.7 min in data set [6] (setting [11]) and 7.7 min in [7] (setting [12]). Besides, in data set [6], the “stability in MLM” value is reported as “much lower stability (higher clearance)”. Besides, the “stability in RLM” value in data set [7] is listed as “much lower stability (higher clearance)”. The “5-HT2A arrestin agonist class” value in data set [8] is recorded as “full agonists”.

For the origin of these results see patent publication US20260317319A1, “NOVEL ERGOLINES AND METHODS OF TREATING MOOD DISORDERS” (Gilgamesh Pharma Inc., priority 2023, published 2026).
